Reference: patent US20240299379A1, “COMPOSITIONS OF CLOFAZIMINE AND AMIKACIN FOR PULMONARY ADMINISTRATION IN THE TREATMENT OF RESPIRATORY DISEASES” (BOARD OF REGENTS, THE UNIVERSITY OF TEXAS SYSTEM, priority 2021, published 2024)
Structures can show the parent of a compound that is named as a salt.

Assays:
[1] = Geometric particle size distribution by laser diffraction (Sympatec HELOS, RODOS dry dispersion); format: physicochemical; details: micronized with Model 00 Jet-O-Mizer Air Jet Mill
Procedure: PSD was calculated using Fraunhofer theory using the Sympatec laser diffractor. […] Measurements were taken every 5 msec […] following powder dispersion. Measurements that were between 5-25% optical density were averaged to determine particle size distribution. Data was analyzed using HELOS software version 5.6.0.0 with an HRLD model to convert the scattering pattern to a particle size distribution.

[2] = Aerosol performance of physical blends, Next Generation Impactor, medium resistance RS01 DPI; format: physicochemical; details: RS01 device
Procedure: (§1) The aerosol performance of the physically blended mixtures was determined using cascade impaction, specifically as Next Generation Impactor, as prescribed by the United States Pharmacopeia chapter 601. For these studies, a medium resistance Model 7 RS01 dry powder inhaler (DPI) manufactured by Berry Global Osnago was utilized. 20 mg of the physical blends (1:0.5 CFZ-AMK, 1:2 CFZ-AMK, 1:4 CFZ-AMK, or 1:8 CFZ-AMK) or 10 mg of air jet milled clofazimine or air jet milled amikacin sulfate alone was loaded into a size 3 hydroxypropyl methylcellulose (HPMC) capsule. The device was actuated at an airflow rate to induce a 4 kPa pressure drop (i.e., 80 L/min) or 2 kPa pressure drop (i.e., 56.6 L/min) through the device for period of time sufficient to draw 4 L of air through the apparatus. To reduce particle bounce and re-entrainment, the NGI plates were coated with 1% (v/v) glycerin in ethanol and allowed to dry prior to performing the experiment. After actuation, powder was collected from the capsule, device, induction port, and stages of the Next Generation Impactor by adding a volume of 75/25 acetonitrile/water containing 0.16 mg/mL polysorbate 80 that was sufficient to dissolve the deposited powder. Phase separation of the solution into an organic phase containing clofazimine and an aqueous phase containing amikacin was induced by adding a volume of 5 M ammonium acetate equivalent to 16.7% of the original solution volume. The organic and aqueous phases were analyzed using high pressure liquid chromatography and concentration of each drug was quantified using a previously prepared standard curve.
(§2) Stage 1-7 cut-off diameters were determined using equation 1 and MOC cut-off diameters were determined using equation 2.
(§3) where D50,Q is the cutoff diameter at the flow rate, Q, and the subscript, n, refers to the archival reference value for Qn=60 L/min, and the values for the exponent, x, were determined by the archival NGI stage cut size-flow rate calculations, as determined by Marple et al.
(§4) The emitted fraction (EF) was calculated as the total drug emitted from the device as a percentage of the total mass of drug collected (i.e., recovered dose). The respirable fraction that was less than 5 μm aerodynamic diameter and less than 3 μm aerodynamic diameter corresponded to the percentage of the recovered dose predicted to have the aerodynamic diameter below 5 μm and 3 μm. The respirable fraction values were interpolated from a graph with the cumulative percentage of the emitted dose deposited downstream from an NGI stage as the ordinate and the particle cutoff size of that stage as the abscissa. For each sample, the mass median aerodynamic diameter (MMAD), which represents the mass-based median point of the aerodynamic particle size distribution (APSD), and geometric standard deviation (GSD), which represents the spread of the APSD, were determined by plotting the cumulative percentage of mass less than the stated aerodynamic size cut (expressed as Probits) against the aerodynamic diameter (log scale). Distributions were log normal. A linear regression was performed to determine the aerodynamic diameters corresponding to the 50% percentile (Probit 5) to determine the MMAD, and the aerodynamic diameters corresponding the 15.87% percentile (Probit 4) and 84.13% percentile (Probit 6) to calculate the GSD. The results of this analysis are shown in Table 5-8 and FIG. 2, and are presented as mean±standard deviation (n=3)

[3] = Aerosol performance of clofazimine and amikacin co-administered from dual chamber Dualhaler DPI, Next Generation Impactor; format: physicochemical; details: Dualhaler device
[4] = Aerosol performance of composite spray dried particles, Next Generation Impactor, medium resistance RS01 DPI; format: physicochemical; details: spray dried powder, RS01 device
Procedure: as §1, with “the composite spray dried particles” for “the physically blended mixtures”, “the spray dried powders (1:2” for “the physical blends (1:0.5 CFZ-AMK, 1:2”, “or spray dried” for “or air jet milled”, “capsule. For these studies, spray dried clofazimine was not tested due to the extremely low powder yield and the tendency of the particles to dry as large needle structures.” for “capsule.”
as §2, §3
as §4, with “Tables 11-14” for “Table 5-8”, “11,” for “2,”

[5] = system: Mab-infected THP-1 macrophages; test: In vitro efficacy study, micronized CFZ particles added to media containing AMK; format: cell-based, Mycobacterium abscessus (Mab)
[6] = 2 kPa pressure drop, amikacin component (Table 7)
[7] = 4 kPa pressure drop, amikacin component
[8] = 2 kPa pressure drop, amikacin component (Table 17)
[9] = 2 kPa pressure drop, amikacin component as titled (Table 8, reference Jet milled CFZ alone)
[10] = 4 kPa pressure drop, clofazimine component
[11] = 2 kPa pressure drop, amikacin component as titled (Table 18, reference Jet milled CFZ alone)
[12] = 2 kPa pressure drop, clofazimine component
[13] = 4 kPa pressure drop, clofazimine component (Table 12)
[14] = 4 kPa pressure drop, clofazimine component as titled (Table 13, reference Spray dried AMK-S alone)

## NCC[C@H](O)C(=O)NC1C[C@H](N)[C@@H](O[C@H]2O[C@H](CN)[C@H](O)[C@H](O)[C@H]2O)[C@H](O)[C@H]1O[C@H]1O[C@H](CO)[C@@H](O)[C@H](N)[C@H]1O (stereo partly drawn) [AMK sulfate, (2S)-4-amino-N-[(2S,3S,4R,5S)-5-amino-2-[(2S,3R,4S,5S,6R)-4-amino-3,5-dihydroxy-6-(hydroxymethyl)oxan-2-yl]oxy-4-[(2R,3R,4S,5R,6R)-6-(aminomethyl)-3,4,5-trihydroxy-oxan-2-yl]oxy-3-hydroxy-cyclohexyl]-2-hydroxybutanamide]
[1]
  X50 particle diameter: 4.04 μm
  X90 particle diameter: 7.72 μm

## NCC[C@H](O)C(=O)NC1C[C@H](N)[C@@H](O[C@H]2O[C@H](CN)[C@H](O)[C@H](O)[C@H]2O)[C@H](O)[C@H]1O[C@H]1O[C@H](CO)[C@@H](O)[C@H](N)[C@H]1O (stereo partly drawn) [Jet milled AMK-S alone, (2S)-4-amino-N-[(2S,3S,4R,5S)-5-amino-2-[(2S,3R,4S,5S,6R)-4-amino-3,5-dihydroxy-6-(hydroxymethyl)oxan-2-yl]oxy-4-[(2R,3R,4S,5R,6R)-6-(aminomethyl)-3,4,5-trihydroxy-oxan-2-yl]oxy-3-hydroxy-cyclohexyl]-2-hydroxybutanamide]
[2]; [6]
  EF (emitted fraction): 77.2 ± 11.2%
  MMAD: 8.23 ± 0.57 μm
  RF < 3 μm: 30.4 ± 3.4%
  RF < 5 μm: 48.3 ± 3.8%
[2]; [7]
  EF (emitted fraction): 82.1 ± 1.2%
  MMAD: 9.07 ± 1.76 μm
  RF < 3 μm: 28.2 ± 4.9%
  RF < 5 μm: 40.8 ± 7.2%
[3]; [8]
  EF (emitted fraction): 14.1 ± 23.7%
  RF < 3 μm: 15.5 ± 2.4%
  RF < 5 μm: 23.4 ± 4.6%
[3]; [7]
  EF (emitted fraction): 47.8 ± 13.8%
  RF < 3 μm: 22.6 ± 1.4%
  RF < 5 μm: 28.6 ± 1.5%

## CC(C)N=c1cc2n(-c3ccc(Cl)cc3)c3ccccc3nc-2cc1Nc1ccc(Cl)cc1 [Jet milled CFZ alone, N,5-bis(4-chlorophenyl)-3-(1-methylethylimino)-5H-phenazin-2-amine]
[2]; [9]
  EF (emitted fraction): 80.7 ± 9.7%
  MMAD: 10.08 ± 7.79 μm
  RF < 3 μm: 37.5 ± 18.2%
  RF < 5 μm: 51.0 ± 19.0%
[2]; [10]
  EF (emitted fraction): 76.2 ± 4.1%
  MMAD: 5.36 ± 0.53 μm
  RF < 3 μm: 47.4 ± 3.7%
  RF < 5 μm: 58.8 ± 4.7%
[3]; [11]
  EF (emitted fraction): 41.2 ± 4.1%
  RF < 3 μm: 19.8 ± 2.2%
  RF < 5 μm: 26.1 ± 3.1%
[3]; [10]
  EF (emitted fraction): 44.9 ± 16.1%
  RF < 3 μm: 25.1 ± 10.9%
  RF < 5 μm: 30.8 ± 12.6%
[4]; [12]
  EF (emitted fraction): 80.7 ± 9.7%
  MMAD: 10.08 ± 7.79 μm
  RF < 3 μm: 37.5 ± 18.2%
  RF < 5 μm: 51.0 ± 19.0%
[4]; [13]
  EF (emitted fraction): 76.2 ± 4.1%
  MMAD: 5.36 ± 0.53 μm
  RF < 3 μm: 47.4 ± 3.7%
  RF < 5 μm: 58.8 ± 4.7%
[5]; increasing doses of micronized CFZ
  Intracellular drug accumulation with increasing doses: notable increase in intracellular drug accumulation
[5]; increasing doses of micronized CFZ, with AMK
  Change in intracellular bacterial burden with increasing doses: no statistically significant changes
[5]; micronized CFZ particles added to media containing 40 μg/mL AMK
  Intracellular Mab bacilli compared to the use of AMK alone: statistically significant reduction

## NCC[C@H](O)C(=O)NC1C[C@H](N)[C@@H](O[C@H]2O[C@H](CN)[C@H](O)[C@H](O)[C@H]2O)[C@H](O)[C@H]1O[C@H]1O[C@H](CO)[C@@H](O)[C@H](N)[C@H]1O (stereo partly drawn) [Spray dried AMK-S alone, (2S)-4-amino-N-[(2S,3S,4R,5S)-5-amino-2-[(2S,3R,4S,5S,6R)-4-amino-3,5-dihydroxy-6-(hydroxymethyl)oxan-2-yl]oxy-4-[(2R,3R,4S,5R,6R)-6-(aminomethyl)-3,4,5-trihydroxy-oxan-2-yl]oxy-3-hydroxy-cyclohexyl]-2-hydroxybutanamide]
[4]; [7]
  EF (emitted fraction): 61.9 ± 8.6%
  MMAD: 6.23 ± 0.97 μm
  RF < 3 μm: 44.5 ± 3.6%
  RF < 5 μm: 50.8 ± 5.8%
[4]; [14]
  EF (emitted fraction): 43.3 ± 8.7%
  MMAD: 11.29 ± 2.93 μm
  RF < 3 μm: 31.8 ± 6.9%
  RF < 5 μm: 37.6 ± 6.2%
